Measured values reported in patent EP3262942A1, “SELENODIARYLS FOR USE AS MICROBICIDE OR AS MEDICINE” (Evonik Degussa GmbH, priority 2016, dated 2018).

Legend:
Candida albicans = experiment: Growth test in microtiter plates, HA medium, 24 h, visual evaluation; format: cell-based; design: key: +: kein Wachstum im Vergleich zur Wachstumskontrolle; -: Wachstum wie Wachstumskontrolle
Mucor miehei = experiment: as above; format: cell-based; design: key to Aktivität gegenüber M. miehei: +: kein Wachstum im Vergleich zur Wachstumskontrolle; -: Wachstum wie Wachstumskontrolle
Penicillium notatum = experiment: as above; format: cell-based; design: key: +: kein Wachstum im Vergleich zur Wachstumskontrolle; -: Wachstum wie Wachstumskontrolle
Paecilomyces variotii = experiment: as above; format: cell-based; design: key: +: kein Wachstum im Vergleich zur Wachstumskontrolle; -: Wachstum wie Wachstumskontrolle
M. grisea H2O = experiment: microbe, parasite or virus in culture; format: cell-based, Magnaporthe grisea; conditions: Pyricularia grisea, H2O, 24 h, read-out: Aktivität gegenüber M. grisea H2O
Botrytis cinerea = experiment: microbe, parasite or virus in culture; format: cell-based; conditions: Botrytis cinerea, 24 h, read-out: Aktivität gegenüber B. cinerea
P. infestans = experiment: microbe, parasite or virus in culture; format: cell-based, Phytophthora infestans; conditions: Phytophthora infestans, 24 h, read-out: Aktivität gegenüber P. infestans
M. grisea CM = experiment: microbe, parasite or virus in culture; format: cell-based, Magnaporthe grisea; conditions: Pyricularia grisea, 24 h, read-out: Aktivität gegenüber M. grisea CM
Lepidium sativum = experiment: Crop plant growth test, seeds on filter discs, 4 days, visual evaluation; format: in vivo
Summary of the method: (§1)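 Compounds dried from DMSO onto filter discs; about 12 seeds per well with 200 µl sterile tap water, incubated 4 days in a humid chamber under 16 h light/8 h dark. Visual scoring: + means at least 75 % growth inhibition versus control, − means less than 75 %.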

Setaria italica = experiment: as above; format: in vivo
Summary of the method: as §1

M. grisea = format: cell-based, Magnaporthe grisea; conditions: medium (H2O or CM) not stated

Cc1cc(C(C)(C)C)cc([Se]c2cc(C(C)(C)C)cc(C)c2O)c1O [Verbindung 13, Di(5-tert-butyl-2-hydroxy-3-methylphenyl)selen]
Aktivität gegenüber C. albicans (Candida albicans; 10µg/mL): - | Aktivität gegenüber C. albicans (Candida albicans; 50µg/mL): - | Aktivität gegenüber M. miehei (Mucor miehei; 10µg/mL): - | Aktivität gegenüber M. miehei (Mucor miehei; 50µg/mL): - | Aktivität gegenüber P. notatum (Penicillium notatum; 10µg/mL): - | Aktivität gegenüber P. notatum (Penicillium notatum; 50µg/mL): - | Aktivität gegenüber P. variotii (Paecilomyces variotii; 10µg/mL): - | Aktivität gegenüber P. variotii (Paecilomyces variotii; 50µg/mL): - | inhibition of growth at 5 µg/mL (M. grisea H2O): > 75% | inhibition of growth at 10 µg/mL (M. grisea H2O): > 75% | inhibition of growth at 25 µg/mL (M. grisea H2O): > 75% | inhibition of growth at 50 µg/mL (M. grisea H2O): > 75% | inhibition of growth at 5 µg/mL (Botrytis cinerea; 5µg/mL): 0 to 25% | inhibition of growth at 10 µg/mL (Botrytis cinerea; 10µg/mL): 0 to 25% | inhibition of growth at 25 µg/mL (Botrytis cinerea; 25µg/mL): 0 to 25% | inhibition of growth at 50 µg/mL (Botrytis cinerea; 50µg/mL): 0 to 25% | inhibition of growth at 5 µg/mL (P. infestans): 0 to 25% | inhibition of growth at 10 µg/mL (P. infestans): 0 to 25% | inhibition of growth at 25 µg/mL (P. infestans): 0 to 25% | inhibition of growth at 50 µg/mL (P. infestans): 0 to 25% | inhibition of growth at 5 µg/mL (M. grisea CM): > 75% | inhibition of growth at 10 µg/mL (M. grisea CM): > 75% | inhibition of growth at 25 µg/mL (M. grisea CM): > 75% | inhibition of growth at 50 µg/mL (M. grisea CM): > 75% | Aktivität gegenüber Nutzpflanzen: L. sativum (Lepidium sativum; 10µg/R): - (weniger als 75 % Wachstumshemmung im Vergleich zur Kontrolle) | Aktivität gegenüber Nutzpflanzen: L. sativum (Lepidium sativum; 20µg/R): - (weniger als 75 % Wachstumshemmung im Vergleich zur Kontrolle) | Aktivität gegenüber Nutzpflanzen: L. sativum (Lepidium sativum; 50µg/R): - (weniger als 75 % Wachstumshemmung im Vergleich zur Kontrolle) | Aktivität gegenüber Nutzpflanzen: S. italica (Setaria italica; 10µg/R): - (weniger als 75 % Wachstumshemmung im Vergleich zur Kontrolle) | Aktivität gegenüber Nutzpflanzen: S. italica (Setaria italica; 20µg/R): - (weniger als 75 % Wachstumshemmung im Vergleich zur Kontrolle) | Aktivität gegenüber Nutzpflanzen: S. italica (Setaria italica; 50µg/R): - (weniger als 75 % Wachstumshemmung im Vergleich zur Kontrolle) | Aktivität gegenüber M. grisea (M. grisea): hohe Aktivität
